# Assay results taken from PMC8001472, “Novel Selective IDO1 Inhibitors with Isoxazolo[5,4-d]pyrimidin-4(5H)-one Scaffold” (Pharmaceuticals, 2021).
# What was measured:
# [1] = target: IDO1 (Homo sapiens, UniProt P14902); assay: hIDO1 inhibitory potency evaluation (fluorescence assay, NFK-derived fluorophore); format: biochemical; design: gene encoding human IDO1 residues 6-403 His-tagged at the N-terminus; His tag (N); made in house; host or cells: Escherichia coli NiCo21; conditions: for IC50: recombinant hIDO1, mean ± SD of at least two independent determinations, read-out: IDO1 IC50; for inhibition at 100 µM: 100 µM compound, n.a. = not active, read-out: IDO1 % of Inhibition @ 100 µM
# Chain of IDO1 (P14902 6-403): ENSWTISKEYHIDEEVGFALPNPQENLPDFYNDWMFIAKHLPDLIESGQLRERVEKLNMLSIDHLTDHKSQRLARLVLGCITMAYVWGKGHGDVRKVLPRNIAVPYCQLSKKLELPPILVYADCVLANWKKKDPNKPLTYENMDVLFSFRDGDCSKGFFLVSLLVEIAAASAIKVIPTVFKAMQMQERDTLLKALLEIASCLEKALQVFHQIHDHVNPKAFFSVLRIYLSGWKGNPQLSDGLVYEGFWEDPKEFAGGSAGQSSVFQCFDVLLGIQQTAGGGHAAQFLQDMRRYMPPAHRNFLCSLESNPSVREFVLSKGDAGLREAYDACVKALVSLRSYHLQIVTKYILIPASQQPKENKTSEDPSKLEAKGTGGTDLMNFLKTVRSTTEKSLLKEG
# [2] = target: T1, hIDO2 (Homo sapiens, UniProt Q6ZQW0); assay: hIDO2 inhibitory potency evaluation (fluorescence assay); format: biochemical; conditions: for inhibition at 100 µM: 100 µM compound, n.a. = not active, read-out: IDO2 % of Inhibition @ 100 µM
# T1 construct: purchased Vinci-Biochem
# T1 sequence (Q6ZQW0 1-407): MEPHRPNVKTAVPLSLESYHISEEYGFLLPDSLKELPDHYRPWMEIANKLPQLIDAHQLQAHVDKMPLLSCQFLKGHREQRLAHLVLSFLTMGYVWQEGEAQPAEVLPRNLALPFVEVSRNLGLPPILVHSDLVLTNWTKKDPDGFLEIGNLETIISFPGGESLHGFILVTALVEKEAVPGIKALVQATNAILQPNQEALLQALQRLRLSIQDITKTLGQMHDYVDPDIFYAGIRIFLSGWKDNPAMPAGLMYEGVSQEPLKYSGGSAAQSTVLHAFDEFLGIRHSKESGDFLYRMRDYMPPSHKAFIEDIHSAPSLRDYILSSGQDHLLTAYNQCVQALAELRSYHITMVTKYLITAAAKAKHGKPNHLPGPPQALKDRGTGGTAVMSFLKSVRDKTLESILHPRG
# Protocol: (§1) Additionally, to determine IDO1 selectivity, all final compounds were assayed for their inhibitory potencies towards hIDO2 and hTDO. For this purpose, two new protocols were developed based on the published fluorescence assay for hIDO1 [25]. Sodium ascorbate, methylene blue, and bovine catalase were used in the same concentrations as for hIDO1. 50 mM phosphate buffers with pH values of 7.5 and 7.0 were used for hIDO2 and hTDO, respectively, as has been already mentioned before. First, the activities of hIDO2 and hTDO were determined at four different concentrations. […] Additionally, the effect of DMSO concentration on enzyme activity was investigated. […] The optimal hIDO2 and hTDO assay concentrations of the substrate L-Trp were determined to be 4 mM and 500 μM, respectively.
# Activity of the compounds on hIDO2 was determined according to the previously reported fluorescence protocol for hIDO1 [25] and reported absorbance protocols for hIDO2 [30, 36] with several modifications. Recombinant hIDO2 was purchased from Vinci-Biochem (Vinci-Biochem, Srl, Vinci, Italy), bovine catalase was purchased from Sigma-Aldrich (Sigma-Aldrich, St. Louis, MO, USA). Prior to the measurement of activity for compounds, the enzyme activity was determined and optimal assay enzyme concentration was selected. The amounts of reagents needed to perform the assay were optimized. Briefly, the reagents needed were dissolved in 50 mM potassium phosphate buffer (pH 7.5, 0.01%, v/v Tween 20), the reaction was performed in black 384-well microplates. After the addition of 1 μL of 100 mM sodium ascorbate neutralized with an equimolar amount of 1M NaOH, 1 μL of 100 μM methylene blue, 1 μL of 1 mg/mL bovine catalase, 0.5 μL of DMSO (negative control) or solution of a compound in DMSO, 5 μL of […] hIDO2 and 1.5 μL of 26.7 mM L-Trp were added and the microplate was incubated for 60 min at 37 °C. The reaction was quenched with the addition of 10 μL of 400 mM piperidine solution in MilliQ water and the formation of the examined fluorophore began following incubation at 65 °C for 20 min. The production of NFK-derived fluorophore (λEX = 400 nm, λEM = 500 nm) was measured using a microplate reader (Synergy H4; BioTek Instruments, Inc., Winooski, VT, USA) after 60 min post-incubation at room temperature. In the preliminary testing compounds were tested at 100 μM with activities determined as residual activities—RA, which were calculated to% of inhibition, presented in Table 1 and Table 2. (% of inhibition = 100% − RA). All determinations were carried out in duplicates.
# [3] = target: T2, hTDO (Homo sapiens, UniProt P48775); assay: hTDO inhibitory potency evaluation (fluorescence assay); format: biochemical; conditions: for inhibition at 100 µM: 100 µM compound, n.a. = not active, read-out: TDO % of Inhibition @ 100 µM
# T2 construct: purchased Vinci-Biochem
# T2 sequence (P48775 whole entry): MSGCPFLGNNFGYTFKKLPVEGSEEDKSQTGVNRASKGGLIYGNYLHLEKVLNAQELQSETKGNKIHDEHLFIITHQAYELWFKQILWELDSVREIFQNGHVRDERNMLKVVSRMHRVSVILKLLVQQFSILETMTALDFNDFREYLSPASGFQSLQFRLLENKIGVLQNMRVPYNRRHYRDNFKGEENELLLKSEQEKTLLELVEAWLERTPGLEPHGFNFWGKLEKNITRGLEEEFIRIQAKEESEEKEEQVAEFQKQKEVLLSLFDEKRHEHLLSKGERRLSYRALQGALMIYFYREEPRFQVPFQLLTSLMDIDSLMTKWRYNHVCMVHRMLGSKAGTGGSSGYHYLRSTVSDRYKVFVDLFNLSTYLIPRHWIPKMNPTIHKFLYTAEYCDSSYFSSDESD
# Protocol: as §1
# The activity of the compounds on hTDO was determined according to the previously reported fluorescence protocol for hIDO1 [25] and reported absorbance protocols for hTDO [30] with several modifications. Recombinant hTDO was purchased from Vinci-Biochem (Vinci-Biochem, Vinci, Italy), bovine catalase was purchased from Sigma-Aldrich (Sigma-Aldrich, St. Louis, MO, USA). Prior to the measurement of activity for compounds, the enzyme activity was determined, and optimal assay enzyme concentration was selected. The amounts of reagents needed to perform the assay were optimized. Briefly, the reagents needed were dissolved in 50 mM potassium phosphate buffer (pH 7.0, 0.01%, v/v Tween 20), the reaction was performed in black 384-well microplates. After the addition of 1 μL of 100 mM sodium ascorbate neutralized with equimolar amount of 1 M NaOH, 1 μL of 100 μM methylene blue, 1 μL of 1 mg/mL bovine catalase, 0.5 μL of DMSO (negative control) or solution of a compound, 5 μL of 300 nM hTDO and 1.5 μL of 3.3 mM L-Trp were added and the microplate was incubated for 60 min at 37 °C. The reaction was quenched with the addition of 10 μL of 400 mM piperidine solution in MilliQ water and the formation of the examined fluorophore began following incubation at 65 °C for 20 min. The production of NFK-derived fluorophore (λEX = 400 nm, λEM = 500 nm) was measured using a microplate reader (Synergy H4; BioTek Instruments, Inc., Winooski, VT, USA) after 60 min post-incubation at room temperature. In the preliminary testing compounds were tested at 100 μM with activities determined as residual activities—RA, which were calculated to% of inhibition, presented in Table 1 and Table 2 (% of inhibition = 100% − RA). All determinations were carried out in duplicates.
Structure (SMILES),IC50 [1],melting point,inhibition at 100 µM [1],further results
O=C(Cn1cnc2onc(-c3ccc(F)cc3)c2c1=O)N1CCCc2ccccc21 [Compound 12],50 µM,,,
CN(C)C(=O)Cn1cnc2onc(-c3ccc(F)cc3)c2c1=O [Compound 13],,215 to 217 °C,21 ± 5%,
O=C(Cn1cnc2onc(-c3ccc(F)cc3)c2c1=O)N1CCCCC1 [Compound 14],,174 to 176 °C,27 ± 4%,
O=C(Cn1cnc2onc(-c3ccc(F)cc3)c2c1=O)NC12CC3CC(CC(C3)C1)C2 [Compound 15],88 µM,204 to 205 °C,,
COC(=O)c1ccccc1NC(=O)Cn1cnc2onc(-c3ccc(F)cc3)c2c1=O [Compound 18],,212 to 214 °C,32 ± 4%,inhibition at 100 µM [2]: 15 ± 1%
COC(=O)c1cccc(NC(=O)Cn2cnc3onc(-c4ccc(F)cc4)c3c2=O)c1 [Compound 19],55 µM,,,
COC(=O)c1ccc(CNC(=O)Cn2cnc3onc(-c4ccc(F)cc4)c3c2=O)cc1 [Compound 21],,165 to 167 °C,27 ± 3%,
O=C(Cn1cnc2onc(-c3ccc(F)cc3)c2c1=O)Nc1cccc(C(F)(F)F)c1 [Compound 22],55 µM,195 to 200 °C,,
O=C(Cn1cnc2onc(-c3ccc(F)cc3)c2c1=O)Nc1ccc(-c2nn[nH]n2)cc1 [Compound 30],,,,inhibition at 100 µM [3]: 17 ± 2%; hIDO1 inhibition (in words) [1]: inactive
COc1cc(NC(=O)Cn2cnc3onc(-c4ccc(F)cc4)c3c2=O)cc(OC)c1OC [Compound 34],,219 to 221 °C,,hIDO1 inhibition (in words) [1]: inactive
O=C(Cn1cnc2onc(-c3ccc(F)cc3)c2c1=O)Nc1cccc2ccccc12 [Compound 35],,210 to 215 °C,20 ± 6%,
O=C(Cn1cnc2onc(-c3ccc(F)cc3)c2c1=O)N1CCc2ccccc2C1 [Compound 37],,201 to 203 °C,17 ± 5%,
O=C(Cn1cnc2onc(-c3ccccc3)c2c1=O)N1CCCc2ccccc21 [Compound 38],,,,inhibition at 100 µM [2]: 16 ± 4%
O=C(Cn1cnc2onc(-c3ccccc3)c2c1=O)Nc1ccc([N+](=O)[O-])cc1 [Compound 40],,197 to 199 °C,,inhibition at 100 µM [2]: 16 ± 5%
O=C(Cn1cnc2onc(-c3ccc(Br)cc3)c2c1=O)N1CCCc2ccccc21 [Compound 41],,,32 ± 1%,
COc1ccc(-c2noc3ncn(CC(=O)N4CCCc5ccccc54)c(=O)c23)cc1 [Compound 42],,171 to 178 °C,15 ± 4%,
O=C(Cn1cnc2onc(-c3ccc(OCc4ccccc4)cc3)c2c1=O)N1CCCc2ccccc21 [Compound 46],,200 to 202 °C,14 ± 3%,
O=C(Cn1cnc2onc(-c3ccc(F)c(F)c3)c2c1=O)N1CCCc2ccccc21 [Compound 47],,,34 ± 1%,
O=C(Cn1cnc2onc(-c3ccc(F)c(F)c3)c2c1=O)Nc1ccc([N+](=O)[O-])cc1 [Compound 48],75 µM,,,inhibition at 100 µM [3]: 10 ± 6%
O=C(Cn1cnc2onc(-c3cccs3)c2c1=O)N1CCCc2ccccc21 [Compound 50],,202 to 205 °C,,
O=C(Cn1cnc2onc(-c3cccs3)c2c1=O)Nc1ccc([N+](=O)[O-])cc1 [Compound 51],53 µM,,,
O=C(Cn1cnc2onc(-c3ccsc3)c2c1=O)N1CCCc2ccccc21 [Compound 52],,,23 ± 5%,
O=C(Cn1cnc2onc(-c3ccsc3)c2c1=O)Nc1ccc([N+](=O)[O-])cc1 [Compound 53],40 µM,231 to 233 °C,,inhibition at 100 µM [2]: 21 ± 6%
"NS(=O)(=O)NCCNc1nonc1C(=NO)Nc1ccc(F)c(Br)c1 [epacadostat, reference compound]",,,,"IC50 ([2]; positive control, assay validation, read-out: IDO2 IC50): 0.58 µM; IC50 [3]: 9.62 µM"

# Now from value to molecule, other results behind:
IC50 [1],melting point,inhibition at 100 µM [1],Structure (SMILES),further results
,203 to 205 °C,15 ± 4%,O=C(Cn1cnc2onc(-c3ccc(F)cc3)c2c1=O)Nc1ccccc1 [Compound 16],inhibition at 100 µM [2]: 28 ± 9%; hIDO1 inhibition (in words) [1]: only weak inhibition
,206 to 209 °C,33 ± 2%,O=C(Cn1cnc2onc(-c3ccc(F)cc3)c2c1=O)Nc1ccc(F)cc1 [Compound 17],hIDO1 inhibition (in words) [1]: only weak inhibition
27 µM,234 to 236 °C,,COC(=O)c1ccc(NC(=O)Cn2cnc3onc(-c4ccc(F)cc4)c3c2=O)cc1 [Compound 20],hIDO1 inhibition (in words) [1]: low micromolar range
,234 to 238 °C,11 ± 2%,CS(=O)(=O)c1ccc(NC(=O)Cn2cnc3onc(-c4ccc(F)cc4)c3c2=O)cc1 [Compound 26],hIDO1 inhibition (in words) [1]: inactive
,> 250 °C,11 ± 4%,N#Cc1ccc(NC(=O)Cn2cnc3onc(-c4ccc(F)cc4)c3c2=O)cc1 [Compound 27],inhibition at 100 µM [3]: 17 ± 2%; hIDO1 inhibition (in words) [1]: inactive
,,31 ± 3%,CN(C)c1ccc(NC(=O)Cn2cnc3onc(-c4ccc(F)cc4)c3c2=O)cc1 [Compound 28],inhibition at 100 µM [3]: 18 ± 4%; hIDO1 inhibition (in words) [1]: weak inhibition
30 µM,237 to 239 °C,,O=C(Cn1cnc2onc(-c3ccc(F)cc3)c2c1=O)Nc1ccc(-c2ncco2)cc1 [Compound 29],inhibition at 100 µM [3]: 29 ± 3%
87 µM,198 to 202 °C,,CC(C)c1ccc(NC(=O)Cn2cnc3onc(-c4ccc(F)cc4)c3c2=O)cc1 [Compound 31],
22 µM,,,O=C(Cn1cnc2onc(-c3ccc(F)cc3)c2c1=O)Nc1ccc(C2CCCCC2)cc1 [Compound 32],hIDO1 inhibition (in words) [1]: low micromolar range
46 µM,180 to 184 °C,,O=C(Cn1cnc2onc(-c3ccc(F)cc3)c2c1=O)Nc1ccc2ccccc2c1 [Compound 36],inhibition at 100 µM [2]: 13 ± 2%
